Reference: patent publication US20260055398A1, “IMPROVED POLYMER DEGRADING ENZYMES” (CAMBRIDGE ENTERPRISE LIMITED, priority 2022, published 2026)

B1: RR11O2: metagenomic-derived esterase with promiscuous activity on PET; amino acid SEQ ID NO. 4; PDB 6ZZV (protein)
chain: MSENMNRPLDYSQKANWYQIPEVTKEFDTFYVYATEYILSSMEEGAPDYADMENAEMLEGAAAEYMLHATAYADSTNVFMPYYRQVGLRYAGVVWKRDGIFDASVAGMPYGDIVAALDYYFEHYNNGRPFIIAGHSQGSAIIKMVLKKYFVEHPDYYKRMIAAYPIGYAFTKDEFKTYPHMKFATGECDTGVIITWNTEGPKNREVNADTCVLQPGSMSINPLNWKLDDTYAPASMNLGSLFPNKDTGKLEIQDLGADAQVFPDRGVVVTHAMGEEMTEETAKVAAEFFGPDGRHGEDYVLFYCNIKDNVAKRISAYMANRK
modifications: RR1102

Legend:
Format in all cases: biochemical
N20O1 = assay: Kinetics of p-NP acyl ester hydrolysis by N20O1; conditions: 50 mM Tris-HCl pH 8.0, 0.3% (v/v) triton X-100, 22° C.
Experimental: The activity of all esterase hits was determined via hydrolysis of p-nitrophenol (p-NP) carboxylesterase by monitoring the release of p-nitrophenol. The amount of p-nitrophenol released was quantified by absorbance at 405 nm (εpNP=17,000 M−1.cm−1) using a Spectramax 190 microplate reader (Molecular Devices). Unless otherwise indicated, the measurements were performed at 22° C. in triplicate using 96-well plates with a final assay volume of 100 μL in 50 mM Tris-HCl pH 8.0 and 0.3% (v/v) triton X-100. The substrate specificity was investigated by measuring the hydrolysis of the following p-NP-fatty acyl esters: butyrate (C4), hexanoate (C6 from TCI Chemicals, H0484), octanoate (C8), decanoate (C10), dodecanoate (C12), myristate (C14) and palmitate (C16). The kinetic parameters for each substrate were obtained by non-linear regression of the data using the Michaelis-Menten equation: V=Vmax*[S]/(Km+[S]), where V is the rate, Vmax is the maximum rate achieved by the reaction, S is the substrate concentration, and Km is the Michaelis-Menten constant. The effect of the pH was evaluated by measuring the enzyme activity at pH 4.0 to 11.0 in 50 mM of the following buffers containing 0.3% (v/v) triton X-100: sodium citrate at pH 4.0, pH 5.0 and 6.0; phosphate at pH 6.0, 7.0, 8.0; Tris-HCl at pH 7.0, 8.0 and 9.0; N-cyclohexyl-3-aminopropanesulfonic acid (CAPS) at pH 9.5, 10.0, 11.0. […]

RR11O2 = assay: Kinetics of p-NP acyl ester hydrolysis by RR11O2; conditions: 50 mM Tris-HCl pH 8.0, 0.3% (v/v) triton X-100, 22° C.
Experimental: (B) Detail of RR11O2's cavity (in blue) and the catalytic triad (in cyan) S149, D311 and H308. (C) The catalytic efficiencies of RR11O2 measured against p-NP acyl esters [acetate (C2), butyrate (C4), hexanoate (C6), octanoate (C8), decanoate (C10), dodecanoate (C12), myristate (C14) and palmitate (C16)]. The reactions were performed in buffer containing 50 mM Tris-HCl PH 8.0 and 0.3% (v/v) Triton X-100 at 22° C.
The activity of all esterase hits was determined via hydrolysis of p-nitrophenol (p-NP) carboxylesterase by monitoring the release of p-nitrophenol. The amount of p-nitrophenol released was quantified by absorbance at 405 nm (εpNP=17,000 M−1.cm−1) using a Spectramax 190 microplate reader (Molecular Devices). Unless otherwise indicated, the measurements were performed at 22° C. in triplicate using 96-well plates with a final assay volume of 100 μL in 50 mM Tris-HCl pH 8.0 and 0.3% (v/v) triton X-100. The substrate specificity was investigated by measuring the hydrolysis of the following p-NP-fatty acyl esters: butyrate (C4), hexanoate (C6 from TCI Chemicals, H0484), octanoate (C8), decanoate (C10), dodecanoate (C12), myristate (C14) and palmitate (C16). The kinetic parameters for each substrate were obtained by non-linear regression of the data using the Michaelis-Menten equation: V=Vmax*[S]/(Km+[S]), where V is the rate, Vmax is the maximum rate achieved by the reaction, S is the substrate concentration, and Km is the Michaelis-Menten constant. The effect of the pH was evaluated by measuring the enzyme activity at pH 4.0 to 11.0 in 50 mM of the following buffers containing 0.3% (v/v) triton X-100: sodium citrate at pH 4.0, pH 5.0 and 6.0; phosphate at pH 6.0, 7.0, 8.0; Tris-HCl at pH 7.0, 8.0 and 9.0; N-cyclohexyl-3-aminopropanesulfonic acid (CAPS) at pH 9.5, 10.0, 11.0.
The enzyme activity of purified RR11O2, Bla-CI5En2 and IsPETase was tested against different p-NP acyl esters [acetate (C2), butyrate (C4), hexanoate (C6), octanoate (C8), decanoate (C10), dodecanoate (C12) and myristate (C14)]. The final enzyme concentration of the enzymes in the reaction depended on the p-NP acyl ester used as substrate. Kinetics were measured at enzyme concentrations of RR11O2, Bla-CI5En2 and IsPETase between 31.25 μM to 23.2 μM, 2.5 nM to 50 nM, and 50 nM to 4.8 μM, respectively. The p-NP acyl ester substrates were used in a concentration range between 0 and 4 mM. The kinetic parameters Vmax and Km were calculated using Kaleidagraph by non-linear lest square fits of initial rates to the Michaelis-Menten equation. […] The released p-nitrophenol was monitored spectro-photometrically at 405 nm (εpNP=18.300 M−1.cm−1) by taking time points in 20 second intervals in a SpectraMax® M3 Microplate Reader (Molecular Devices).

[1] = Enzymatic degradation of PET (nanoparticles, film), HPLC of released TPA and MHET
Description: (A) Sequence network of currently known PETases and a novel esterase metagenomic-derived, RR11O2. […] Grey nodes represent sequences extracted from MGnify and NCBI. Red node represents RR11O2, blue nodes represent known PETases, green and orange nodes represent reported cutinases and esterases showing PET activity, respectively, and light blue nodes represent described polyester degrading enzymes in the literature. To putatively characterise sequence clusters, the identification of PETases, cutinases, esterases and RR11O2 in the network helped to define the potential clusters. The cluster of RR11O2, CI5En2 and PETase are written in grey. (B) PET hydrolases catalyze the depolymerization of poly(ethylene terephthalate) (PET) to bis(2-hydroxyethyl) terephthalate (BHET), mono(2-hydroxyethyl)-terephthalic (MHET) or terephthalic acid (TPA) and ethylene glycol (EG). During characterizations via high-performance liquid chromatography (HPLC) MHET and TPA have been identified as main products. […] Absorbance at 250 nm was monitored.
(A) Enrichment of variants with higher activity compared to wildtype after sorting the ep-PCR library of CI5En2. […] Amount of the released monomers TPA and MHET was determined via HPLC and corresponding standard curves for TPA and MHET. […]
HPLC analysis of the products released after one week incubation at 30° C. using 6 μM pExp-bla-CI5En2-WT. Absorbance at 250 nm was monitored which detects released TPA and MHET.
To detect the release of TPA, MHET and BHET in the presence of various enzymes, aliquots were taken from reaction mixtures, turnover was stopped by addition of an equal volume of methanol containing 0.5% formic acid, centrifuged (16,100×g, 15 min) and analysed by HPLC (1260 Infinity II, Agilent; Nucleodur C18 analytical EC standard column (5 μm, 4×125 mm, Macherey-Nagel, Germany). As the mobile phase mixtures of buffer A (0.1% formic acid in distilled water) and buffer C (distilled water), as well as buffer D (acetonitrile) were used at a flow rate of 1 mL/min. Buffer A was kept at 20% for the whole run. […]

Molecule	Km (N20O1) [µM]	kcat (N20O1) [s⁻¹]	Km (RR11O2) [µM]	kcat (RR11O2) [s⁻¹]	promiscuous activity on PET [1]
CCCCCCCCCCCC(=O)Oc1ccc([N+](=O)[O-])cc1 [Substrate 3f, p-NP dodecanoate]	2000	0.5	2800	0.78	
CCCCCC(=O)Oc1ccc([N+](=O)[O-])cc1 [Substrate 3c, p-NP hexanoate]	1400	250	720	35	
CCCCCCCCCCCCCC(=O)Oc1ccc([N+](=O)[O-])cc1 [Substrate 3g, p-NP myristate]	4400	0.042	1500	0.039	
CCCCCCCCCCCCCCCC(=O)Oc1ccc([N+](=O)[O-])cc1 [Substrate 3h, p-NP palmitate]	4800	0.016	7400	0.017	
CCCC(=O)Oc1ccc([N+](=O)[O-])cc1 [Substrate 3b, p-NP butyrate]	2200	630	2200	46	
CCCCCCCC(=O)Oc1ccc([N+](=O)[O-])cc1 [Substrate 3d, p-NP octanoate]	1100	370	370	11	
CC(=O)Oc1ccc([N+](=O)[O-])cc1 [Substrate 3a, p-NP acetate]	3800	520	30000	390	
CCCCCCCCCC(=O)Oc1ccc([N+](=O)[O-])cc1 [Substrate 3e, p-NP decanoate]	1500	31	2000	5.4	
B1					exhibits promiscuous activity on PET
